According to US11116847B2, “Methylene carbamate linkers for use with targeted-drug conjugates” (Seagen Inc., priority 2013, dated 2021):
Marks after values point to notes of the source that are not given here.

What was measured:
[1] = In vitro stability of drug-linker / model drug-linker compounds to spontaneous hydrolysis of the methylene carbamate unit (LC/MS); assay type: physicochemical; conditions: for Relative Degradation Half-life Observed by LC/MS: 0.1M PBS; for Relative Degradation Half-life Observed by LC/MS / drug-linker degradation: pH 7.4, at 37° C.; for comparative hydrolytic stability: PBS, 8.26 compared with 6.4, 5.6 compared with model compound (8.23); for comparative hydrolytic stability / degradation / stability to spontaneous hydrolysis / stability to spontaneous hydrolysis when R is dimethylaminoethyl instead of ethyl: pH 7.4, 37° C.; for drug-linker degradation: after 14 da incubation in 0.1 M PBS; for degradation / stability to spontaneous hydrolysis / stability to spontaneous hydrolysis when R is dimethylaminoethyl instead of ethyl: 0.1 M phosphate buffered saline; for degradation / stability to spontaneous hydrolysis: tested every 24 h for 7 days by LC/MS; for stability to spontaneous hydrolysis when R is dimethylaminoethyl instead of ethyl: 7 days, compared with 8.26
Procedure: General procedure for testing Drug-Linker stability: Final N-acetyl products of Example 8 were dissolved in 1 mL 0.1 M phosphate buffered saline, pH 7.4, in a vial at 37° C. LC/MS samples were prepared by adding 2 μL aliquots of incubated compound solution to 100 μL of MeOH in an HPLC vial. Each conjugate was tested every 24 h for 7 days.
For evaluation of in vitro stability of Compound 7.7 this Drug-Linker compound was converted to its N-acetylcysteine conjugate (NAC-7.7), which provide a model LDC with NAC serving as a surrogate for a targeting antibody Ligand Unit. For that purpose eight microliters of a 8 mM DMSO stock of Drug-Linker Compound was diluted in phosphate-buffered saline (0.39 mL). The maleimide moiety in each Drug-Linker Compound was then quenched with N-acetylcysteine (0.8 μL, 100 mM stock), and the material was stored in a 37° C. incubator. Aliquots were drawn at various time points out to 14 days and analyzed by UPLC-MS for drug-linker integrity.
Stability testing was conducted as in Example 9.

[2] = system: Type B-1 β-glucuronidase (bovine liver); assay: Release of free drug or model drug from NAC-conjugates after glucuronidase activation of the Self-immolative Assembly Unit; assay type: biochemical; conditions: NAC-conjugate corresponding to the named model drug-linker compound (N-acetyl cap replaced by maleimide Stretcher quenched with N-acetyl-cysteine)
Procedure: Release of free drug from the NAC-7.7 conjugate derived from the Drug-Linker Compound of Example 7 was evaluated in the following manner: An enzyme stock was prepared by dissolving Type B-1 β-glucuronidase (bovine liver, 1,644,000 units/g solid) in pH 5 100 mM sodium acetate buffer to a working concentration of 0.5 mg/mL. Five microliters of 8 mM drug-linker stock of compound 7.7 was added to 12.5 μL DMSO, 26.3 μL of phosphate-buffered saline, and 6.75 μL of 100 mM N-acetylcysteine. The quenched linker was then diluted with 0.45 mL enzyme stock. The enzymatic reaction was then incubated at 37 C, with multiple time points taken at 1, 10, 20, and 40 minutes. Each time point sample consisted of 20 μL reaction diluted in 5 volumes ice cold methanol and cooled to −20 C until all the samples were withdrawn. The samples were then centrifuged at 12,000 g for 5 minutes and 20 μL of supernatant was analyzed by UPLC-MS. After 20 minutes of enzyme digestion the drug-linker was completely consumed. By 40 minutes, the majority of the material was free drug, indicating effectively complete drug release from the linker system.
Releases of stand-in “free drugs” from NAC conjugates incorporating the Drug-Linker moieties from Example 8 were also studied. Those compounds were prepared by replacing the N-acetyl capping group with N-3-(propionoyl)-maleimide, which introduces a maleimide Stretcher Unit precursor, in the amino intermediates used for the preparation of model drug linker compounds 8.23-8.30. The maleimide moieties are then quenched with N-acetyl-cysteine as previously described for the preparation of NAC-7.7. The NAC-conjugates derived from the amino intermediates of Example 8 have the generalized structure of
[drawing 194] wherein T* is the oxygen or sulfur heteroatom from the hydroxyl or sulfhydryl functional group of the primary alcohol or thiol-containing compound or the oxygen heteroatom from the hydroxyl functional group of the secondary or tertiary alcohol-containing compound or from the phenolic-containing compound of Table 3.

[3] = system: Caki-1; assay: In vitro cytotoxic activity of ADCs; assay type: cell-based; conditions: Table 6; Caki-1 CD70+
Procedure: (§1) The targeting antibody ligands cAC10 and h1F6 are described in U.S. Pat. […] cAC10-1006 and hF16-1006, referenced in the following tables, is the chimeric AC10 antibody and the humanized F16 antibody, respectively, conjugated to monomethyl auristatin E (MMAE) at its N terminus via a carbamate functional group to a val-cit-PABA self-immolative moiety having formula XVIII and was used as a control. The resultant ADCs were tested against multiple cell lines to determine in vitro activity, the results from which are summarized in Tables 5 and 6.

[4] = system: 786-0; assay: In vitro cytotoxic activity of ADCs; assay type: cell-based; conditions: Table 6; 786-0 CD70+
Procedure: as §1

[5] = system: L540cy; assay: In vitro cytotoxic activity of ADCs; assay type: cell-based; conditions: Table 6; L540cy CD30+ CD70 (low)
Procedure: as §1

[6] = system: Karpas 299; assay: In vitro cytotoxic activity of ADCs; assay type: cell-based; conditions: Table 6; Karpas 299 CD30+ CD70−
Procedure: as §1

In the case of C=CC[C@@H]1/C=C(\C)C[C@H](C)C[C@H](OC)[C@H]2O[C@@](O)(C(=O)C(=O)N3CCCC[C@H]3C(=O)O[C@H](/C(C)=C/C3CC[C@@H](OCNC(=O)OCc4ccc(NC(=O)[C@H](CCCNC(N)=O)NC(=O)[C@@H](NC(=O)CCN5C(=O)C=CC5=O)C(C)C)cc4)[C@H](OC)C3)[C@H](C)[C@@H](O)CC1=O)[C@H](C)C[C@@H]2OC (some centres unmarked) [Compound 6.4], the “Relative Degradation Half-life Observed by LC/MS” value [1] is reported as “None Observed”, the comparative hydrolytic stability [1] is reported as “acceptable stability” and the drug-linker degradation [1] is reported as “No indication of drug-linker degradation”. The half-life ([1]; phosphate buffered saline, 0.1 M PBS buffer, pH 7.4 at 37° C.) was 10 h.

In the case of CCN(COc1cccc2ccccc12)C(=O)OCc1ccc(O[C@@H]2O[C@H](C(=O)O)[C@@H](O)[C@H](O)[C@H]2O)c(NC(C)=O)c1 [Compound 8.28, (2S,3S,4S,5R,6S)-6-(2-acetamido-4-(((ethyl((naphthalen-1-yloxy)methyl)carbamoyl)oxy)methyl)phenoxy)-3,4,5-trihydroxytetrahydro-2H-pyran-2-carboxylic acid], the “Relative Degradation Half-life Observed by LC/MS” value [1] is reported as “None Observed”, the “degradation / stability to spontaneous hydrolysis” value (“degradation / stability” for short) [1] is reported as “excellent stability” and the “Time to 100% Release” value [2] is reported as 25 min.

For CCN(COCCc1ccccc1)C(=O)OCc1ccc(O[C@@H]2O[C@H](C(=O)O)[C@@H](O)[C@H](O)[C@H]2O)c(NC(C)=O)c1 [Compound 8.25, (2S,3S,4S,5R,6S)-6-(2-acetamido-4-(((ethyl(phenethoxymethyl)carbamoyl)oxy)methyl)phenoxy)-3,4,5-trihydroxytetrahydro-2H-pyran-2-carboxylic acid], the “Relative Degradation Half-life Observed by LC/MS” value [1] was 170 h, the “stability to spontaneous hydrolysis when R is dimethylaminoethyl instead of ethyl” value [1] was “same excellent stability” and the “degradation / stability” value [1] was “suitable stability”. For the same molecule, the “Time to 100% Release” value [2] was 15 min.

In the case of COCCOCCOCCOCCOCCOCCOCCOCCN(COC(C)Cc1ccccc1)C(=O)OCc1ccc(O[C@@H]2O[C@H](C(=O)O)[C@@H](O)[C@H](O)[C@H]2O)c(NC(C)=O)c1 (stereo partly drawn) [Compound 8.32, (2S,3S,4S,5R,6S)-6-(2-acetamido-4-(3-oxo-4-(((1-phenylpropan-2-yl)oxy)methyl)-2,7,10,13,16,19,22,25,28-nonaoxa-4-azanonacosyl)phenoxy)-3,4,5-trihydroxytetrahydro-2H-pyran-2-carboxylic acid], the “Relative Degradation Half-life Observed by LC/MS” value [1] is reported as “None Observed”, the “degradation / stability” value [1] is reported as “no signs of degradation” and the “Time to 100% Release” value [2] is reported as 15 min.

In the case of CCN(COC(C)(C)Cc1ccccc1)C(=O)OCc1ccc(O[C@@H]2O[C@H](C(=O)O)[C@@H](O)[C@H](O)[C@H]2O)c(NC(C)=O)c1 [Compound 8.27, (2S,3S,4S,5R,6S)-6-(2-acetamido-4-(((ethyl(((2-methyl-1-phenylpropan-2-yl)oxy)methyl)carbamoyl)oxy)methyl)phenoxy)-3,4,5-trihydroxytetrahydro-2H-pyran-2-carboxylic acid], the “Relative Degradation Half-life Observed by LC/MS” value [1] is reported as 170 h, the “stability to spontaneous hydrolysis when R is dimethylaminoethyl instead of ethyl” value [1] is reported as “same excellent stability” and the “degradation / stability” value [1] is reported as “suitable stability”. The “Time to 100% Release” value [2] was 15 min.

With CCN(CSCCc1ccccc1)C(=O)OCc1ccc(O[C@@H]2O[C@H](C(=O)O)[C@@H](O)[C@H](O)[C@H]2O)c(NC(C)=O)c1 [Compound 8.29, (2S,3S,4S,5R,6S)-6-(2-acetamido-4-(((ethyl((phenethylthio)methyl)carbamoyl)oxy)methyl)phenoxy)-3,4,5-trihydroxytetrahydro-2H-pyran-2-carboxylic acid] the “Relative Degradation Half-life Observed by LC/MS” value [1] was “None Observed”, the “degradation / stability” value [1] was “no sign of degradation” and the “Time to 100% Release” value [2] was 40 min.

With CO[C@H]1C[C@@H]2CC[C@@H](C)[C@@](O)(O2)C(=O)C(=O)N2CCCC[C@H]2C(=O)O[C@H]([C@@H](C)C[C@H]2CC[C@@H](OCCOCNC(=O)OCc3ccc(NC(=O)[C@H](CCCNC(N)=O)NC(=O)[C@@H](NC(=O)CCN4C(=O)C=CC4=O)C(C)C)cc3)[C@H](OC)C2)CC(=O)[C@H](C)/C=C(\C)[C@@H](O)[C@@H](OC)C(=O)[C@H](C)C[C@H](C)/C=C/C=C/C=C/1C [Compound 5.6] the “Relative Degradation Half-life Observed by LC/MS” value [1] was 170 h, the comparative hydrolytic stability [1] was “even better hydrolytic stability” and the drug-linker degradation [1] was “No indication of drug-linker degradation”.

For CCN(COC(C)Cc1ccccc1)C(=O)OCc1ccc(O[C@@H]2O[C@H](C(=O)O)[C@@H](O)[C@H](O)[C@H]2O)c(NC(C)=O)c1 (stereo partly drawn) [Compound 8.26, (2S,3S,4S,5R,6S)-6-(2-acetamido-4-(((ethyl(((-phenylpropan-2-yl)oxy)methyl)carbamoyl)oxy)methyl)phenoxy)-3,4,5-trihydroxytetrahydro-2H-pyran-2-carboxylic acid], the “Relative Degradation Half-life Observed by LC/MS” value [1] was “None Observed”, the “degradation / stability” value [1] was “no signs of degradation” and the comparative hydrolytic stability [1] was “increase stability”. For the same molecule, the “Time to 100% Release” value [2] was 45 min.

In the case of CC(=O)Nc1cc(COC(=O)N(CCN(C)C)COC(C)(C)Cc2ccccc2)ccc1O[C@@H]1O[C@H](C(=O)O)[C@@H](O)[C@H](O)[C@H]1O [Compound 8.31, (2S,3S,4S,5R,6S)-6-(2-acetamido-4-((((2-(dimethylamino)ethyl)(((2-methyl-1-phenylpropan-2-yl)oxy)methyl)carbamoyl)oxy)methyl)phenoxy)-3,4,5-trihydroxytetrahydro-2H-pyran-2-carboxylic acid], the “Relative Degradation Half-life Observed by LC/MS” value [1] is reported as “None Observed” and the “Time to 100% Release” value [2] is reported as 15 min.

For CC(=O)Nc1cc(COC(=O)N(CCN(C)C)COCCc2ccccc2)ccc1O[C@@H]1O[C@H](C(=O)O)[C@@H](O)[C@H](O)[C@H]1O [Compound 8.30, (2S,3S,4S,5R,6S)-6-(2-acetamido-4-((((2-(dimethylamino)ethyl)(phenethoxymethyl)carbamoyl)oxy)methyl)phenoxy)-3,4,5-trihydroxytetrahydro-2H-pyran-2-carboxylic acid], the “Relative Degradation Half-life Observed by LC/MS” value [1] was “None Observed” and the “Time to 100% Release” value [2] was 15 min.

For CCN(CO[C@H]1C2[C@H]3O[C@H]3[C@H]3C4=C(CC[C@]3(C)[C@@]23O[C@H]3[C@@H]2O[C@]12C(C)C)C(=O)OC4)C(=O)OCc1ccc(O[C@@H]2OC(C(=O)O)[C@@H](O)[C@H](O)C2O)c(NC(=O)CCNC(=O)CCN2C(=O)C=CC2=O)c1 (some centres unmarked) [Compound 4.5], the “Relative Degradation Half-life Observed by LC/MS” value [1] was “None Observed” and the drug-linker degradation [1] was “No indication of drug-linker degradation”.

B1: h1F6-1.3: h1F6 antibody (targets CD70+ cells) conjugated to auristatin E Drug-Linker compound 1.3 with MAC unit (conjugate, chains of the INN, looked up)
VH: QVQLVQSGAEVKKPGASVKVSCKASGYTFTNYGMNWVRQAPGQGLKWMGWINTYTGEPTYADAFKGRVTMTRDTSISTAYMELSRLRSDDTAVYYCARDYGDYGMDYWGQGTTVTVSS
VL: DIVMTQSPDSLAVSLGERATINCRASKSVSTSGYSFMHWYQQKPGQPPKLLIYLASNLESGVPDRFSGSGSGTDFTLTISSLQAEDVAVYYCQHSREVPWTFGQGTKVEIK
modifications: auristatin E drug-linker 1.3 with MAC unit
notes: h1F6 antibody (targets CD70+ cells) conjugated to auristatin E Drug-Linker compound 1.3 with MAC unit
In the case of B1, the IC50 [3] is reported as 0.019 µg/mL, the IC50 [4] is reported as >1000** ng/mL and the IC50 [5] is reported as >1000* ng/mL. For the same molecule, the IC50 [6] was over 1 µg/mL.
